From patent publication US6046219A, “Method for the treatment of conditions mediated by collagen formation together with cell proliferation by application of inhibitors of protein hydroxylation” (Cornell Research Foundation, Inc., priority 1997, dated 2000)
Entries after “also recorded” stand apart in the source; their conditions may differ.

Tests used:
[1] = biological target: T1, purified human prolyl 4-hydroxylase (Homo sapiens, UniProt P13674); test: Assay of purified human prolyl 4-hydroxylase (14CO2 release from 2-oxoglutarate, cell-free); format: biochemical
T1 construct: made in house; host or cells: Spodoptera frugiperda insect cells (baculovirus, co-expression of α- and β-subunits)
T1 sequence (P13674 18-534): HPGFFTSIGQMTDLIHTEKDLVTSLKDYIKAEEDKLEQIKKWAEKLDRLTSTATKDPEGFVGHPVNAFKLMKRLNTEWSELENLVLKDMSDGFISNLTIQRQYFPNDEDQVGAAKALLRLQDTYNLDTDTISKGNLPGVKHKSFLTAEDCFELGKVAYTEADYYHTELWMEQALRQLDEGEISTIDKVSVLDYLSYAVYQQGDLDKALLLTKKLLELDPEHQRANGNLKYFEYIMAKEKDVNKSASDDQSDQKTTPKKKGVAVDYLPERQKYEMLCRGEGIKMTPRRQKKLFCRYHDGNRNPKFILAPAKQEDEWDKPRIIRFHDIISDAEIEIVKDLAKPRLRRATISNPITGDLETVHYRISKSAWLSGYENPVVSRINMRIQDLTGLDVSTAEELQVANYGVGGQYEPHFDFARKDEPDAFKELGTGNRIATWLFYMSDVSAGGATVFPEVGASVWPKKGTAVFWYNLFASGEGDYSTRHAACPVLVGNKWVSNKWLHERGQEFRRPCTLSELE
T1 sequence (P07237 18-508 partner): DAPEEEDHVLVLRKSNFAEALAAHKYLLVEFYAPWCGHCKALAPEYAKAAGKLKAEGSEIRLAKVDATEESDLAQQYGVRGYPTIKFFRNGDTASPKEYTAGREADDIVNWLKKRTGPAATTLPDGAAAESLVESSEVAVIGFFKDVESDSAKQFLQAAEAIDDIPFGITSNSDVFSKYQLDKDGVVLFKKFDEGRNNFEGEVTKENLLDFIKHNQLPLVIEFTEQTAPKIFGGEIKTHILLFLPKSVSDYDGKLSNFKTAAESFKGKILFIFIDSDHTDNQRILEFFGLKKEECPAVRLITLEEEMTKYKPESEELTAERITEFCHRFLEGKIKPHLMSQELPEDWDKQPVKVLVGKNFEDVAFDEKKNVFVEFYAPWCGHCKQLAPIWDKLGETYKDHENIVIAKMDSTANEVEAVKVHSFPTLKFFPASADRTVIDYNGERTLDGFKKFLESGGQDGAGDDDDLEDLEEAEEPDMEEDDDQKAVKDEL
Description: The effect on the enzyme was determined in a cell-free system by measuring the oxidative decarboxylation of its cofactor 2-oxoglutarate via release of radiolabeled carbon dioxide in a standard reaction mixture also containing ascorbate, ferrous sulfate, and unhydroxylated peptide substrate.
The inhibitory action of the substances according to the invention, for example on collagen secretion or cell proliferation, can be tested in direct assays of the enzymes mediating the pivotal protein hydroxylations for these biological processes, such as prolyl 4-hydroxylase and deoxyhypusyl hydroxylase. This entails the enzymatic hydroxylation of the appropriate protein precursor, either by the cellular or the purified enzyme, in the presence or absence of compounds of Formulae (I) or (II), with concomitant determination of co-substrate utilization by these enzymes or subsequent isolation of the hydroxylated amino acid and its unhydroxylated precursor. In this manner, the inhibitory potency of any given compound can be measured in the cell-free system, in cell culture, or in tissue, and is expressed as the inhibitory dose that gives a 50% reduction of the enzyme-mediated reaction (ID50). Enzyme is tested in analogy to the method of A. Abbruzzese, H. M. Hanauske-Abel, et al., Biochem. Biophys. Acta, 1077, 159-166 (1991) and of K. Majamaa, H. M. Hanauske-Abel, et al., Eur. J. Biochem. 138, 239-245 (1984), which are hereby incorporated by reference. Table III lists the ID50 values of some of the compounds according to the invention, using purified human prolyl 4-hydroxylase and cellular human deoxyhypusyl hydroxylase as representative protein hydroxylases.
The inhibiting effect of hydroxypyridones on the collagen-hydroxylating enzyme was studied in a cell-free system.
Assay of purified human prolyl 4-hydroxylase
The native α2 β2 -tetrameric enzyme was purified to homogeneity by poly(L-proline) affinity chromatography and DEAE chromatography from the supernatant of Spodoptera frugiperda insect cells cotransfected with recombinant baculovirus transfer vectors for both the human α- and β-subunits. Enzyme activity was determined by trapping of ^14 CO2 released from 2-oxo[1-^14 C][glutarate] according to the procedure of Majamaa, et al., Eur. J. Biochem., 138:239-245 (1984), which is hereby incorporated by reference. Briefly, all incubations were run for 60 minutes at 37° C. in a final volume of 1.0 ml per test sample, containing 0.1 μg enzyme, 0.1 mg heat-denatured (Pro-Pro-Gly)10 ×9 H2 O as hydroxylatable substrate, 0.1 mM 2-oxo[1-^14 C][glutarate] adjusted to 60,000 dpm by mixing with the unlabeled 2-oxoglutarate as cosubstrate, and cofactors (1.6 mM ascorbate, 0.05 mM ferrous sulfate, 0.08 mM dithiothreitol, 2 mg bovine serum albumin, 5 μL catalase). Assays are performed with only one of the active compounds at any given time.

[2] = test system: deoxyhypusyl hydroxylase activity in human smooth muscle cells; test: Cellular deoxyhypusyl hydroxylase in human smooth muscle cells; format: cell-based; conditions: FIG. 3b
Description: In FIG. 3a, the effect on the human enzyme was determined by measuring in proliferating cultured B-lymphocytes the covalent incorporation of tritiated spermidine-derived label into cellular protein, after standard hydrolysis, chromatographic separation of amino acids, and expression of the results relative to uninhibited controls. In FIG. 3b, a standard chromatographic elution profile is shown as obtained from cultured human smooth muscle cells ("SMC"), grown out of coronary atherosclerotic lesions and metabolically labeled in the absence and presence of L-mimosine. […]
The cellular conversion of the precursor deoxyhypusine to the hydroxylated hypusine in cells was examined, after preincubation with the inhibitor for 60 minutes, by labeling the human cells with ^3 H-spermidine (5 μCi/ml) in 25 cm^2 flasks (1×10^6 cells/flask) for 24 hours prior to cell lysis, precipitation with 10% TCA containing 1 mM each of putrescine, spermidine, and spermine, and hydrolysis in 6 N HCl at 110° C. for 16 hours. The hydrolysate was analyzed for labeled amino acids on an amino acid analyzer by published methods (Park et al., J. Biol. Chem., 257:7217-7222 (1982), which is hereby incorporated by reference). The retention of purified hypusine and deoxyhypusine was determined from standards.

type I procollagen = test: Type I procollagen secretion by SMC; format: cell-based; conditions: human SMC, FIG. 6b
Description: Type III collagen biosynthesis (FIG. 6a) was assessed by a commercial radioimmunoassay using a monoclonal antibody to the N-terminal propeptide of type III procollagen. Plasminogen activator inhibitor-1 ("PAI-1") activity was measured by a standard enzymatic method. Type I collagen biosynthesis (FIG. 6b) was assessed by routine Western blot using a monoclonal antibody to the C-terminal propeptide of type I procollagen.
SMC or MRC-5 cells (3-5×10^6 cells/35 mm well), incubated in serum-free DMEM containing 50 μg/ml sodium ascorbate and 20 μg/ml β-aminopropionitrile, are exposed for 24 hours to increasing concentrations of hydroxypyridones. After centrifugation, to clear any cellular debris, these supernatants are used to determine the levels of type I and III procollagens, using commercially available radioimmunoassays (Incstar and Behringwerke, respectively).
Human SMC (3-5×10^5 cells/35 mm well), grown to confluency and incubated in serum-free DMEM containing 50 μg/ml sodium ascorbate and 20 μg/ml β-aminopropionitrile, were exposed for 24 hours to increasing concentrations of test compounds. […] Type I procollagen biosynthesis also was quantified by Western analysis in the following manner. […] Immunoblots were scanned with a UMAX UC630 flatbed scanner and quantified densitometrically using standard software.

cell proliferation = conditions: Hanauske-Abel et al. 1994; cited from earlier work
[3] = test system: cellular deoxyhypusyl hydroxylase; conditions: Hanauske-Abel et al. 1994; cited from earlier work

N[C@@H](Cn1ccc(=O)c(O)c1)C(=O)O [L-Mimosine]
inhibition of purified human prolyl 4-hydroxylase ([1]; cell-free system, FIG. 1): directly inhibit | Prolyl 4-hydroxylase ID50 (purified) ([1]; purified human enzyme, inhibitory dose that gives 50% reduction of the enzyme-mediated reaction, unit assumed): 120 µM | inhibition of deoxyhypusyl hydroxylase activity [2]: inhibit deoxyhypusyl hydroxylase activity; also recorded: label is shifted to the unhydroxylated precursor of Hps | inhibition of secretion of procollagen type I (type I procollagen): potent inhibitor; also recorded: selectively suppressive effect | inhibition of the multiplication of certain cells (cell proliferation): reversible inhibitor | inhibition of cellular deoxyhypusyl hydroxylase activity [3]: block the cellular deoxyhypusyl hydroxylase activity
